Laboratory results reported in paper PMC4170816 (Journal of Chemical Information and Modeling, 2014).
Like-named read-outs stand apart in the source and are kept apart here.

Legend:
CB2-WT = CB2-WT (Homo sapiens, UniProt P34972); experiment: [3H]CP55940 binding to CB2-WT in buffer supplemented with NaCl; settings: NaCl up to 1000 mM; CB2-WT transiently expressed on CHO cell membrane
CB1 = settings: read-out: Ki to the CB1 receptor; cited from earlier work
A2AAR = settings: sodium 150 mM; cited from earlier work
wild-type CB2 (WT) = wild-type CB2 (WT) (Homo sapiens, UniProt P34972); experiment: Competition binding assay, displacement of [3H]-CP-55940, membranes of CHO cells
δ-opioid receptor = settings: cited from earlier work

Sequence of wild-type CB2 (WT) (P34972 whole entry): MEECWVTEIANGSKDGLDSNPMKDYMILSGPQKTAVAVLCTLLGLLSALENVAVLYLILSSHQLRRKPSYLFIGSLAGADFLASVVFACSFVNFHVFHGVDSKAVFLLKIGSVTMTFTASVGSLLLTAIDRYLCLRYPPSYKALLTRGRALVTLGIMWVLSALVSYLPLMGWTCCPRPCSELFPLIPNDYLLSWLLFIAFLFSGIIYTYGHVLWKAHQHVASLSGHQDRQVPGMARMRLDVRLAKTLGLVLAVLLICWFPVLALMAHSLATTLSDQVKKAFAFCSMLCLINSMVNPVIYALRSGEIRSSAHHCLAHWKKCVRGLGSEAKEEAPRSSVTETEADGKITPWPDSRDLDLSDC
Sequence of CB2-WT (P34972 whole entry): as above

Which “effect on the binding of the CB2 agonist [3H]CP55940” value (CB2-WT) does the source give for `[Cl-].[Na+]` [Na^+, NaCl] here?
The value was “did not have any effect”.

For `Cc1ccc(Cn2nc(C(=O)N[C@@H]3C(C)(C)[C@@H]4CC[C@@]3(C)C4)cc2-c2ccc(Cl)c(C)c2)cc1` [SR144528, 5-(4-chloro-3-methylphenyl)-1-[(4-methylphenyl)methyl]-N-[(1S,2S,4R)-1,3,3-trimethylbicyclo[2.2.1]hept-2-yl]-1H-pyrazole-3-carboxamide], which Ki (CB1) is on record?
Its Ki is 400 nM.

Which “binding detected in presence of sodium” value (A2AAR) does the source give for `CCNC(=O)[C@H]1O[C@@H](n2cnc3c(N)ncnc32)[C@H](O)[C@@H]1O` [[^3H]NECA, 5′-N-ethylcarboxamidoadenosine] here?
Its value is 25%.

With `N=C(N)NC(=O)c1nc(Cl)c(N)nc1N` [amiloride] as the molecule, how does the Ki (wild-type CB2 (WT); Ki value at CB2, competition binding, no added NaCl) read?
Its Ki is 495000 nM.

And the Ki (wild-type CB2 (WT); Ki value at CB2 with 150 mM NaCl, with 150 mM NaCl)?
The Ki was 310000 nM.

Which Ki (δ-opioid receptor; read-out: Ki value with 0 mM NaCl, 0 mM NaCl) does the source give for “[D-Ala^2, D-Leu^5]-Enkephalin [[^3H]DADLE]” here?
Its Ki is 280 nM.

And the Ki (δ-opioid receptor; read-out: Ki value with 140 mM NaCl, 140 mM NaCl)?
The Ki was 2800 nM.
